Measured values reported in PubChem BioAssay (NCI).
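48-hour exposure; five concentrations; linearly interpolated endpoints. At the TGI there is no net growth.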

Experiments:
Experiment in all cases: NCI-60 cell line screen, 48 h
786-0 renal = tested on: 786-0 renal
A498 renal = tested on: A498 renal
A549 NSCLC = tested on: A549 NSCLC
ACHN renal = tested on: ACHN renal
CAKI-1 renal = tested on: CAKI-1 renal
CCRF-CEM leukemia = tested on: CCRF-CEM leukemia
COLO 205 colon = tested on: COLO 205 colon
DLD-1 colon = tested on: DLD-1 colon
DMS 114 small cell lung = tested on: DMS 114 small cell lung
DMS 273 small cell lung = tested on: DMS 273 small cell lung
EKVX NSCLC = tested on: EKVX NSCLC
HCC-2998 colon = tested on: HCC-2998 colon
HCT-116 colon = tested on: HCT-116 colon
HCT-15 colon = tested on: HCT-15 colon
HOP-18 NSCLC = tested on: HOP-18 NSCLC
HOP-62 NSCLC = tested on: HOP-62 NSCLC
HOP-92 NSCLC = tested on: HOP-92 NSCLC
HT29 colon = tested on: HT29 colon
IGROV1 ovarian = tested on: IGROV1 ovarian
K-562 leukemia = tested on: K-562 leukemia
KM12 colon = tested on: KM12 colon
KM20L2 colon = tested on: KM20L2 colon
LOX IMVI melanoma = tested on: LOX IMVI melanoma
LXFL 529 NSCLC = tested on: LXFL 529 NSCLC
M14 melanoma = tested on: M14 melanoma
M19-MEL melanoma = tested on: M19-MEL melanoma
MALME-3M melanoma = tested on: MALME-3M melanoma
MOLT-4 leukemia = tested on: MOLT-4 leukemia
NCI-H226 lung = tested on: NCI-H226 lung
NCI-H23 lung = tested on: NCI-H23 lung
NCI-H460 lung = tested on: NCI-H460 lung
NCI-H522 lung = tested on: NCI-H522 lung
OVCAR-3 ovarian = tested on: OVCAR-3 ovarian
OVCAR-4 ovarian = tested on: OVCAR-4 ovarian
OVCAR-5 ovarian = tested on: OVCAR-5 ovarian
OVCAR-8 ovarian = tested on: OVCAR-8 ovarian
RPMI-8226 leukemia = tested on: RPMI-8226 leukemia
RXF 393 renal = tested on: RXF 393 renal
RXF-631 renal = tested on: RXF-631 renal
SF-268 CNS = tested on: SF-268 CNS
SF-295 CNS = tested on: SF-295 CNS
SK-MEL-2 melanoma = tested on: SK-MEL-2 melanoma
SK-MEL-28 melanoma = tested on: SK-MEL-28 melanoma
SK-MEL-5 melanoma = tested on: SK-MEL-5 melanoma
SK-OV-3 ovarian = tested on: SK-OV-3 ovarian
SN12C renal = tested on: SN12C renal
SNB-19 CNS = tested on: SNB-19 CNS
SNB-75 CNS = tested on: SNB-75 CNS
SNB-78 CNS = tested on: SNB-78 CNS
SR leukemia = tested on: SR leukemia
SW-620 colon = tested on: SW-620 colon
TK-10 renal = tested on: TK-10 renal
U251 CNS = tested on: U251 CNS
UACC-257 melanoma = tested on: UACC-257 melanoma
UACC-62 melanoma = tested on: UACC-62 melanoma
UO-31 renal = tested on: UO-31 renal

CCCCCCCCCCCCCCCCCC[N+](C)(C)Cc1ccc(C[N+](C)(C)CCCCCCCCCCCCCCCCCC)cc1
TGI (786-0 renal): 39.1 µM | TGI (A498 renal): 91.7 µM | TGI (A549 NSCLC): 38.8 µM | TGI (ACHN renal): 30.3 µM | TGI (CAKI-1 renal): 47.7 µM | TGI (CCRF-CEM leukemia): 44.1 µM | TGI (COLO 205 colon): > 100 µM | TGI (DLD-1 colon): 57.3 µM | TGI (DMS 114 small cell lung): 34.1 µM | TGI (DMS 273 small cell lung): 45.9 µM | TGI (EKVX NSCLC): 43.1 µM | TGI (HCC-2998 colon): 93.7 µM | TGI (HCT-116 colon): 32.5 µM | TGI (HCT-15 colon): > 100 µM | TGI (HOP-18 NSCLC): 34.8 µM | TGI (HOP-62 NSCLC): 34.7 µM | TGI (HOP-92 NSCLC): 24.8 µM | TGI (HT29 colon): 38.6 µM | TGI (IGROV1 ovarian): > 100 µM | TGI (K-562 leukemia): > 100 µM | TGI (KM12 colon): 39.4 µM | TGI (KM20L2 colon): 92.7 µM | TGI (LOX IMVI melanoma): 32.3 µM | TGI (LXFL 529 NSCLC): 12.8 µM | TGI (M14 melanoma): 49 µM | TGI (M19-MEL melanoma): 59.8 µM | TGI (MALME-3M melanoma): > 100 µM | TGI (MOLT-4 leukemia): 51.8 µM | TGI (NCI-H226 lung): 41.5 µM | TGI (NCI-H23 lung): 18 µM | TGI (NCI-H460 lung): > 100 µM | TGI (NCI-H522 lung): > 100 µM | TGI (OVCAR-3 ovarian): 40.6 µM | TGI (OVCAR-4 ovarian): > 100 µM | TGI (OVCAR-5 ovarian): 96.7 µM | TGI (OVCAR-8 ovarian): 30.5 µM | TGI (RPMI-8226 leukemia): 48.7 µM | TGI (RXF 393 renal): 6.67 µM | TGI (RXF-631 renal): 57.1 µM | TGI (SF-268 CNS): 43.1 µM | TGI (SF-295 CNS): 24.2 µM | TGI (SK-MEL-2 melanoma): > 100 µM | TGI (SK-MEL-28 melanoma): 35 µM | TGI (SK-MEL-5 melanoma): 66.6 µM | TGI (SK-OV-3 ovarian): 69.6 µM | TGI (SN12C renal): 30.1 µM | TGI (SNB-19 CNS): 76.1 µM | TGI (SNB-75 CNS): 26 µM | TGI (SNB-78 CNS): 47.1 µM | TGI (SR leukemia): 5.63 µM | TGI (SW-620 colon): > 100 µM | TGI (TK-10 renal): 28.6 µM | TGI (U251 CNS): 56.2 µM | TGI (UACC-257 melanoma): 34 µM | TGI (UACC-62 melanoma): 47.6 µM | TGI (UO-31 renal): 56.3 µM
